The target of data set [1] is T1, α1C Human Adrenergic Receptor (Homo sapiens, UniProt P35348).
T1 construct: The entire coding region of α1C (1401 bp); expressed in transfected cells
T1 sequence (P35348 1-466): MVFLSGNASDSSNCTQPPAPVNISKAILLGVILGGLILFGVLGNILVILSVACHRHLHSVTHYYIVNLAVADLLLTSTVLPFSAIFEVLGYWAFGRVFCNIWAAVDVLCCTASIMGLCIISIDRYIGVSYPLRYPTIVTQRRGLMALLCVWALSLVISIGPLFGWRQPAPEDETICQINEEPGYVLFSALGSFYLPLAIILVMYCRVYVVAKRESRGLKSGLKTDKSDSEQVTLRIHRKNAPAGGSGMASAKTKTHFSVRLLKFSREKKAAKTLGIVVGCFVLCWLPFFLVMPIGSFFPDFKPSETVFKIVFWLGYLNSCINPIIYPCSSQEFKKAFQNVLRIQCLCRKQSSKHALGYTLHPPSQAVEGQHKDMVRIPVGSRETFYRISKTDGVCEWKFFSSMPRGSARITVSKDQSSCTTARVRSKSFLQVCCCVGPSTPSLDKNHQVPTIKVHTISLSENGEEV
Description: Radioligand binding, [3H]prazosin, cloned human α1C adrenergic receptor. In outline: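 Antagonist radioligand [3H]prazosin at 0.5 nM labels human α1C receptors in stably transfected LM(tk−) cell membranes over 20 min at 37° C. Phentolamine (10 μM) gives nonspecific binding.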

Data set [2] deals with T2, α1B Human Adrenergic Receptor (Homo sapiens, UniProt P35368).
T2 construct: The entire coding region of α1B (1563 bp); expressed in transfected cells
T2 sequence (P35368 1-520): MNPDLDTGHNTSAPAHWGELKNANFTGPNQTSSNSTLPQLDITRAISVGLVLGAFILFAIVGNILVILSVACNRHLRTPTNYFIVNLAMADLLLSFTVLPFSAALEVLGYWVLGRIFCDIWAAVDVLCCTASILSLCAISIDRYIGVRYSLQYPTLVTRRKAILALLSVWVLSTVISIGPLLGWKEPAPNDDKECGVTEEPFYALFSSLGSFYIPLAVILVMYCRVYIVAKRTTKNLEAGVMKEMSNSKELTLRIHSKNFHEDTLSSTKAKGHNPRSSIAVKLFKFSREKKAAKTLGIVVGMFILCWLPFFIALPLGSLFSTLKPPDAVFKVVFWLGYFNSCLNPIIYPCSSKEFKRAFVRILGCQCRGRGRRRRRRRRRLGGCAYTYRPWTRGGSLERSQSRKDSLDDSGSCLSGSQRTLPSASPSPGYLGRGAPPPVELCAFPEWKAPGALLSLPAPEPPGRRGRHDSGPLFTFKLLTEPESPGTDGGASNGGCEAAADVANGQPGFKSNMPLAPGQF
Description: Radioligand binding, [3H]prazosin, cloned human α1B adrenergic receptor. In outline: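 [3H]prazosin (0.5 nM) binding was run for 20 min at 37° C in pH 7.5 Tris/MgCl2/ascorbate buffer on membranes of LM(tk−) cells stably expressing the cloned receptor. Filtration through GF/B ended the reaction; 10 μM phentolamine gave nonspecific binding.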

The next data set addresses T3, L-type calcium channel (Rattus norvegicus, UniProt P22002).
T3 construct: membrane fragments of rat cardiac muscle; from tissue; host or cells: rat cardiac muscle membranes
Description: Competition binding of [3H]nitrendipine to membrane fragments of rat cardiac muscle. How it is done:
The protocols for these experiments are given below.
Determination of the Activity of al Antagonists at Calcium Channels
Briefly, the tissue was minced and homogenized in 50 mM Tris-HCl (pH 7.4) containing 0.1 mM phenylmethylsulfonyl fluoride. The homogenates were centrifuged at 1000 g for 15 minutes, the resulting supernatant was centrifuged at 45,000 g for 15 minutes. The 45,000 g pellet was suspended in buffer and centrifuged a second time. Aliquots of membrane protein were incubated for 30 minutes at 37° C. in the presence of [3H]nitrendipine (1 nM), and nonspecific binding was determined in the presence of 10 μM nifedipine. The bound radioligand was separated by filtration through GF/B filters using a cell harvester.

Data set [3] addresses T4, α1A Human Adrenergic Receptor (Homo sapiens, UniProt P25100).
T4 construct: The entire coding region of α1A (1719 bp); expressed in transfected cells
T4 sequence (P25100 1-572): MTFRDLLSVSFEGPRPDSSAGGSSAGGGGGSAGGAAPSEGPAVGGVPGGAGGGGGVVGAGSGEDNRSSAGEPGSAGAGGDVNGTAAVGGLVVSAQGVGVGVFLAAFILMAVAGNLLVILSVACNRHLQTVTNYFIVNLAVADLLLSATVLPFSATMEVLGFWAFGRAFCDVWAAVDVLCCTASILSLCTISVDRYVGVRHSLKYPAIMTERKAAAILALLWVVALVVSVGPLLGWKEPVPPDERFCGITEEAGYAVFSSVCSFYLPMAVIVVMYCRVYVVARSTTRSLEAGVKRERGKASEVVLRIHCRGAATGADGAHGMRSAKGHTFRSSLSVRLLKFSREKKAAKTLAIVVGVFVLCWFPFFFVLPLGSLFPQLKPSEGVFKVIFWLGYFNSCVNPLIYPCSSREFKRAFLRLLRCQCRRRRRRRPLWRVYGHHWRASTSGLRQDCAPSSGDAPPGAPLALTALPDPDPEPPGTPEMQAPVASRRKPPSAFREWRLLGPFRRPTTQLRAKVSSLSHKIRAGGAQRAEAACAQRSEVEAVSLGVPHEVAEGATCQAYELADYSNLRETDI
Description: Radioligand binding, [3H]prazosin, cloned human α1A adrenergic receptor. A digest of the protocol:
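[3H]prazosin 0.5 nM, transfected LM(tk−) membranes, 37° C, 20 min. Buffer 50 mM Tris-HCl/1 mM MgCl2/0.1% ascorbate, pH 7.5. NSB: 10 μM phentolamine. Filtration harvest.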

Where [4] appears, read: PKi alpha-1 1c, cloned human receptor, LM(tk-) cell membranes, mean.
The mark [5] stands for this setting: PKi alpha-1 1b, cloned human receptor, LM(tk-) cell membranes, mean.
[6] abbreviates: [3H]nitrendipine, rat cardiac muscle membranes, mean, read-out: PKi Ca (converted).
The mark [7] stands for this setting: PKi alpha-1 1a, [3H]prazosin, cloned human receptor, LM(tk-) cell membranes, mean.
The mark [8] stands for this setting: cloned human receptor, LM(tk-) cell membranes, mean, read-out: PKi alpha-1 1c (converted).
Where [9] appears, read: cloned human receptor, LM(tk-) cell membranes, mean, read-out: PKi alpha-1 1b (converted).
Setting [10] is: [3H]prazosin, cloned human receptor, LM(tk-) cell membranes, mean, read-out: PKi alpha-1 1a (converted).

For orientation: melting point means the temperature of the solid-liquid transition.

Read-outs that look alike come from different tables or passages of the source.

T3 sequence (P22002 whole entry, other chains not shown, the tested form may be a part): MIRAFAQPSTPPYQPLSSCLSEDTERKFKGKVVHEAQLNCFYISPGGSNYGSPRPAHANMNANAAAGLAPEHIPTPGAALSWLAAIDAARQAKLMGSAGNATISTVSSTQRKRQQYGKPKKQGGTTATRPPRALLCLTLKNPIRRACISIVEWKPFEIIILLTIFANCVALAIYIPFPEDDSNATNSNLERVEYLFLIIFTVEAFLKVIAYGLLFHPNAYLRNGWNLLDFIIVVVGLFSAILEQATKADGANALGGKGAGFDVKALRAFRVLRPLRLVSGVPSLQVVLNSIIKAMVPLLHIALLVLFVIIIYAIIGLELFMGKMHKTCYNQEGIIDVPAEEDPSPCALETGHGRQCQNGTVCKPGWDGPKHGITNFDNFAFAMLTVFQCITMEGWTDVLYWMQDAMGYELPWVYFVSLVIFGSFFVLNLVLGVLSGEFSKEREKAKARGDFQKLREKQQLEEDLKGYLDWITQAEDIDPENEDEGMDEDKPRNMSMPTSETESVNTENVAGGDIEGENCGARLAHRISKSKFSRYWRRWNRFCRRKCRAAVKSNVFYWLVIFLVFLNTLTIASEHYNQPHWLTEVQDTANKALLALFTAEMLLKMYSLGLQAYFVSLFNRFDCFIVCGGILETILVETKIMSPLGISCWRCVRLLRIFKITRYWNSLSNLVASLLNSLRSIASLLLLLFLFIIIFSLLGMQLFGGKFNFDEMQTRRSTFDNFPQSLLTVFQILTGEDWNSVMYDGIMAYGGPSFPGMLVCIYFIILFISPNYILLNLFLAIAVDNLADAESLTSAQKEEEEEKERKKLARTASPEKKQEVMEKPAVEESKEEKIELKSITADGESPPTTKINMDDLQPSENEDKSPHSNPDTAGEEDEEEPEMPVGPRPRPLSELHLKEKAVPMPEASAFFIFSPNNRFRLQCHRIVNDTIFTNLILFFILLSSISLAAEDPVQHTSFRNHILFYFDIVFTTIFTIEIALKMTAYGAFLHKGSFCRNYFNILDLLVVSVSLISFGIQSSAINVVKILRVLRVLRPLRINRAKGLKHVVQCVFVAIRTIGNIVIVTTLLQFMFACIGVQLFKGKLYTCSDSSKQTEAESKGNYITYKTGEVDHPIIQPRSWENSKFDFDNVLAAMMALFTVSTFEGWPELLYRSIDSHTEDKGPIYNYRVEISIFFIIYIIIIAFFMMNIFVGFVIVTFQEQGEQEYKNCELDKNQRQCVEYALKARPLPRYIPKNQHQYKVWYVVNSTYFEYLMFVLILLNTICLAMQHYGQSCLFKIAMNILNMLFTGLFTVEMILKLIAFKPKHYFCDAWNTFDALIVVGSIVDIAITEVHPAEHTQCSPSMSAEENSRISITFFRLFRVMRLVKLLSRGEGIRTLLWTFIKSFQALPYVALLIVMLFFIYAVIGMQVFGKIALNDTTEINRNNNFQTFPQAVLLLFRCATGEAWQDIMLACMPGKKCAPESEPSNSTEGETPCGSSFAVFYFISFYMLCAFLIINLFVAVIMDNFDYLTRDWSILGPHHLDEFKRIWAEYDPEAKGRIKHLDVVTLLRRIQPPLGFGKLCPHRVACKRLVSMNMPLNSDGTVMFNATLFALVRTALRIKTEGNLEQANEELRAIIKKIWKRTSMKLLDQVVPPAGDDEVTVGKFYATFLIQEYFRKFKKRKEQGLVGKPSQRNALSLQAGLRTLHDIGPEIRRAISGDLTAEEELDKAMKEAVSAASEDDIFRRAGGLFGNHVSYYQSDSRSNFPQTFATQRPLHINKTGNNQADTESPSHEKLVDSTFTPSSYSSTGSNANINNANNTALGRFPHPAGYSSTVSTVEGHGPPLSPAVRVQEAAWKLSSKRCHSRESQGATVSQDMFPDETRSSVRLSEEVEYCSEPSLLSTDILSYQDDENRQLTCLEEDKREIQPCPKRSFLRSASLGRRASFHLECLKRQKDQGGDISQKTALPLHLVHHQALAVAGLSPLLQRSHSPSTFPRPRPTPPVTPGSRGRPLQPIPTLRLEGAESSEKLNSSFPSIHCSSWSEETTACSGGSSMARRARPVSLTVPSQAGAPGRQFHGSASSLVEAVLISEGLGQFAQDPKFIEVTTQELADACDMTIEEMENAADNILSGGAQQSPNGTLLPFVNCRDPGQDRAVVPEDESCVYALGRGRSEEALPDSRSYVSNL
T3 sequence (P54290 25-944 partner limits assumed, other chains not shown): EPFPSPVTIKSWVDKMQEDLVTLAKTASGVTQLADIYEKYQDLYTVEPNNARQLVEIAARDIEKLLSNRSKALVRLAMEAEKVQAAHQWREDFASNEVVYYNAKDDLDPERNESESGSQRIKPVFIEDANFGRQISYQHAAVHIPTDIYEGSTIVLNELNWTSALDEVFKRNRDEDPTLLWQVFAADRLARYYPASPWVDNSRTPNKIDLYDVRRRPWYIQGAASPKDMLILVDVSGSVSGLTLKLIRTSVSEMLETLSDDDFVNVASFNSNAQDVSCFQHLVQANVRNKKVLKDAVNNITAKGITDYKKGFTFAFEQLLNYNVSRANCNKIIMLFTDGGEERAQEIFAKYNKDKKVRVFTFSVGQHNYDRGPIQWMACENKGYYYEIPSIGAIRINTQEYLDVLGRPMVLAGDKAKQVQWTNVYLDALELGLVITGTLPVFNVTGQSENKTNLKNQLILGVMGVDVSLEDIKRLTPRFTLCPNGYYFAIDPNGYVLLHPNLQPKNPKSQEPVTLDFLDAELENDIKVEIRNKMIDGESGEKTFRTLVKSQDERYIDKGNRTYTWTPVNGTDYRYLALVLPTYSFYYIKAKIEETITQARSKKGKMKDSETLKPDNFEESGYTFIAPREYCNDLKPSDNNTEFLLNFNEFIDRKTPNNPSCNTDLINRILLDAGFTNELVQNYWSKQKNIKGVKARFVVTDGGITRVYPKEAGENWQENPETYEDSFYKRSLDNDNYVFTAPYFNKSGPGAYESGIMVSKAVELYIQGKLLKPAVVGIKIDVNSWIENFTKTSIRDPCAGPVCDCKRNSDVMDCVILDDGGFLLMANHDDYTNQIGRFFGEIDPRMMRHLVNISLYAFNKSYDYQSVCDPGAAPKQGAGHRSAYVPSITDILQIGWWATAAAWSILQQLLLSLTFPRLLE
T3 sequence (P54290 945-1091 partner limits assumed, other chains not shown): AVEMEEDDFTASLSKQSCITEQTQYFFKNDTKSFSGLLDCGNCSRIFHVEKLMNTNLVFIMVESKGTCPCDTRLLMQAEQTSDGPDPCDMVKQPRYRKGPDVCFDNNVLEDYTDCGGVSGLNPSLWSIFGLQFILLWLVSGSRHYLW

For the compound `CCCC1=C(C(=O)NCC)C(c2ccc([N+](=O)[O-])cc2)C(C(=O)NCCCN2CCC(c3ccccc3)(c3ccccc3)CC2)=C(CCC)N1` (stereo not drawn) [Example 159, 5-(N-Ethyl)carboxamido-1,4-dihydro-4-(4-nitrophenyl)-3-{N-[3-(4,4-diphenylpiperidin-1-yl)propyl]}carboxamido-2,6-dipropylpyridine], the melting point was in the range of 123 to 128 °C. The Ki in data set [1] (cloned human α1C receptor, LM(tk−) cell membranes, read-out: pKi alpha-1 1c (converted)) was 5.01 nM. Moreover, the Ki in data set [2] (cloned human α1B receptor, LM(tk−) cell membranes, read-out: pKi alpha-1 1b (converted)) was 178 nM. Also, at L-type calcium channel (pKi Ca), the Ki was 1.66 µM. In data set [3] (pKi alpha-1 1a), the Ki was 389 nM.
Regarding `CCCC1=C(C(=O)O)C(c2ccc([N+](=O)[O-])cc2)C(C(=O)NCCCN2CCC(c3ccccc3)(c3ccccc3)CC2)=C(CCC)N1` (stereo not drawn) [Example 161, 1,4-Dihydro-4-(4-nitrophenyl)-5-{N-[3-(4,4-diphenylpiperidin-1-yl)propyl]}carboxamido-2,6-dipropylpyridine-3-carboxylic acid], the melting point lay in the range of 126 to 130 °C. For the same compound, the Ki in data set [1] (pKi alpha-1 1c, cloned human α1C receptor, LM(tk−) cell membranes) is 38.9 nM. The compound also had a Ki in data set [2] (pKi alpha-1 1b, cloned human α1B receptor, LM(tk−) cell membranes) of 407 nM. Also, the Ki at L-type calcium channel ([3H]nitrendipine, rat cardiac muscle membrane fragments, L-type calcium channel, read-out: pKi Ca (converted)) was 1000 µM. Also, the Ki in data set [3] (pKi alpha-1 1a, [3H]prazosin, cloned human α1A receptor, LM(tk−) cell membranes) was 1320 nM.
For the compound `COc1ccc(C2(c3ccccc3)CCN(CCCNC(=O)C3=C(COCCN=[N+]=[N-])NC(C)=C(C(N)=O)C3c3ccc([N+](=O)[O-])cc3)CC2)cc1` (stereo not drawn) [Example 184, 2-[(2-Azidoethoxy)methyl]-5-carboxamido-1,4-dihydro-3-{N-[3-(4-(4-methoxyphenyl)-4-phenylpiperidin-1-yl)propyl]}carboxamido-6-methyl-4-(4-nitrophenyl)pyridine], the melting point lay within 105 to 107 °C. For the same compound, in data set [1] (setting [4]), the Ki is 9.55 nM. The Ki in data set [2] (setting [5]) is 174 nM. In addition, the Ki on L-type calcium channel (setting [6]) is 12.3 µM. Besides, the Ki in data set [3] (setting [7]) was 741 nM.
The matching figures for `CCC1=C(C(=O)O)C(c2ccc([N+](=O)[O-])cc2)C(C(=O)NCCCN2CCC(c3ccccc3)(c3ccccc3)CC2)=C(COCCN)N1` (stereo not drawn) [Example 219, 2-((2-Aminoethyl)oxy)methyl-6-ethyl-1,4-dihydro-4-(4-nitro)phenyl-3-(N-(3-(4,4-diphenylpiperidin-1-yl)propyl))carboxamidopyridine-5-carboxylic Acid]: 180 °C (dec.), 30.2 nM, 1230 nM, 575 µM and 2690 nM.
For `CCC1=C(C(=O)OCCC#N)C(c2ccc([N+](=O)[O-])cc2)C(C(=O)NCCCN2CCC(C#N)(c3ccccc3)CC2)=C(COC)N1` (stereo not drawn) [Example 220, 5-(2-Cyanoethoxy)carbonyl-3-(N-(3-(4-cyano-4-phenylpiperidin-1-yl)propyl))carboxamido-6-ethyl-1,4-dihydro-2-methyloxymethyl-4-(4-nitro)phenylpyridine] the same measures were 58 to 68 °C, 9.77 nM, 525 nM, 437 µM and 2140 nM.
As to `CCC1=C(C(=O)OCCC#N)C(c2ccc([N+](=O)[O-])cc2)C(C(=O)NCCCN2CCC(c3ccccc3)CC2)=C(COC)N1` (stereo not drawn) [Example 221, 5-(2-Cyanoethoxy) carbonyl-6-ethyl-1,4-dihydro-2-methyloxymethyl-4-(4-nitro)phenyl-3-(N-(3-(4-phenylpiperidin-1-yl)propyl))carboxamidopyridine], the melting point fell in the range of 55 to 63 °C. The Ki in data set [1] (setting [8]) is 6.17 nM. For the same compound, the Ki in data set [2] (setting [9]) is 52.5 nM. Moreover, the Ki on L-type calcium channel (setting [6]) was 14.1 µM. In data set [3] (setting [10]), the Ki was 186 nM.
In the case of `CCC1=C(C(=O)O)C(c2ccc([N+](=O)[O-])cc2)C(C(=O)NCCCN2CCC(C#N)(c3ccccc3)CC2)=C(COC)N1` (stereo not drawn) [Example 222, 3-(N-(3-(4-Cyano-4-phenylpiperidin-1-yl)propyl))carboxamido-6-ethyl-1,4-dihydro-2-methyloxymethyl-4-(4-nitro) phenylpyridine-5-carboxylic Acid], the melting point was 115 °C (dec.). Further, the Ki in data set [1] (setting [4]) is 41.7 nM. Moreover, in data set [2] (setting [5]), the Ki is 6760 nM. At L-type calcium channel (setting [6]), the Ki was 282 µM. Further, in data set [3] (setting [7]), the Ki is 14100 nM.
In turn, `CCC1=C(C(=O)OCCC#N)C(c2ccc([N+](=O)[O-])cc2)C(C(=O)NCCCN2CCC(C(=O)OC)(c3ccccc3)CC2)=C(COCCN=[N+]=[N-])N1` (stereo not drawn) [Example 226, 2-((2-Azidoethyl)oxy) methyl-5-(2-cyanoethoxy) carbonyl-6-ethyl-1,4-dihydro-3-(N-(3-(4-methoxycarbonyl-4-phenylpiperidin-1-yl)propyl))carboxamido-4-(4-nitro)phenylpyridine] registered a melting point of 54 to 60 °C. In data set [1] (setting [8]), the Ki was 11 nM. In addition, the Ki in data set [2] (setting [9]) is 97.7 nM. In addition, the Ki on L-type calcium channel (setting [6]) was 8.71 µM. Further, the Ki in data set [3] (setting [10]) was 224 nM.
The matching figures for `CCC1=C(C(=O)O)C(c2ccc([N+](=O)[O-])cc2)C(C(=O)NCCCN2CCC(C(=O)OC)(c3ccccc3)CC2)=C(COCCN=[N+]=[N-])N1` (stereo not drawn) [Example 227, 2-((2-Azidoethyl)oxy)methyl-6-ethyl-1,4-dihydro-3-(N-(3-(4-methoxycarbonyl-4-phenylpiperidin-1-yl)propyl))carbo xamido-4-(4-nitro)phenylpyridine-5-carboxylic Acid]: 110 to 120 °C, 23.4 nM, 2630 nM, 70.8 µM and 5130 nM.

The values above are taken from US6608086B2, “Dihydropyridines and new uses thereof” (Synaptic Pharmaceutical Corporation, priority 1993, dated 2003).
